Consider 20 compounds from patent US20190152992A1, “BENZODIOXANE DERIVATIVES AND THEIR PHARMACEUTICAL USE” (Orion Corporation, priority 2016, published 2019).

Structures are written as SMILES.

One test deals with T1, human alpha2C receptors (Homo sapiens, UniProt P18825).
T1 sequence (P18825 1-462): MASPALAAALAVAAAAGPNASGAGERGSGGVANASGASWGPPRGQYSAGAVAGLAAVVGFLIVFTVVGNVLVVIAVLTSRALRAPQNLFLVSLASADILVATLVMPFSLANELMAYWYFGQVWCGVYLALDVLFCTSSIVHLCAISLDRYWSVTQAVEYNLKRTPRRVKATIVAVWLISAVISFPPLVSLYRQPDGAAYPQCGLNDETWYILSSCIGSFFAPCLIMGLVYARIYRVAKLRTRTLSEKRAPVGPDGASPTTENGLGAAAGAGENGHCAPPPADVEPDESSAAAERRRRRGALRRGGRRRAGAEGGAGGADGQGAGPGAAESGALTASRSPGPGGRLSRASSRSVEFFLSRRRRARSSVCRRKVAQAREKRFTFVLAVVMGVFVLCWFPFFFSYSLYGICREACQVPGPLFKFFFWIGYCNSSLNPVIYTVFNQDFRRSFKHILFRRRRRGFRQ
The test can be described thus: Determination of alpha2C antagonistic activity in vitro (FLIPR calcium assay). The conditions noted are these: for Kb: Alpha 2C Adrenaline Kb, Kb calculated from IC50 with the Cheng-Prusoff equation, adrenaline as agonist, CHO cells, human alpha2C.

The target in a further test is T2, human alpha2A receptors (Homo sapiens, UniProt P08913).
T2 sequence (P08913 1-465): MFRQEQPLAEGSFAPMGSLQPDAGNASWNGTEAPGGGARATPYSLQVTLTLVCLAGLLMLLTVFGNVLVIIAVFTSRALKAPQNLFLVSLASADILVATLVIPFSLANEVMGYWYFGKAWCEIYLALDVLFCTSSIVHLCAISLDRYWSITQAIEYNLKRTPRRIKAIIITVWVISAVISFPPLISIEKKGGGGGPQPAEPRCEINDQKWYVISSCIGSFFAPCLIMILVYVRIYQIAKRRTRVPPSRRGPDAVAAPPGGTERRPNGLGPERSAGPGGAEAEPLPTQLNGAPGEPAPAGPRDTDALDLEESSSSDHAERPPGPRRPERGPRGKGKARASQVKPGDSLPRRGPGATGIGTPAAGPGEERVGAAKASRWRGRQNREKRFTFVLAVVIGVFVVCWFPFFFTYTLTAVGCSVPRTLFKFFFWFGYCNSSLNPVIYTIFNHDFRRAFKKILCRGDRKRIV
The test can be described thus: cell-based.

Procedure for human alpha2A receptors: (§1) Experiment 1: Determination of alpha2A and alpha2C Antagonistic Activity In Vitro
(§2) The growth medium was removed and the cells were incubated with the test compounds and the FLIPR Calcium 6 Assay reagent (Molecular Devices, CA, USA) for 2 h at 37° C. in dark. The test compounds (concentrations in cells 100 pM-10 μM) were dissolved in Probenecid-Ringer consisting of 150 mM NaCl, 3 mM KCl, 1.2 mM MgCl2, 1 mM CaCl2, 5 mM glucose, 20 mM HEPES and 2.5 mM probenecid (pH 7.4 adjusted with 1.0 M NaOH). […] All experiments were performed at 37° C. For agonism measurements the test compounds dissolved in Probenecid-Ringer were applied by FLIPR Tetra at 15 s time point. In order to determine antagonism, the cells were stimulated either with 100 nM adrenaline or noradrenaline and the test compounds were added to the cells 2 h before the experiment with the FLIPR Calcium 6 Assay reagent. […] Typically, there were four replicates at each concentration and six different dose levels. […] The minimum fluorescence value subtracted from the maximum value for each well was used in the calculations. ScreenWorks version 4.0 software was used for analyzing the results. Fitting of the antagonist dose-response results was performed with the free Hill equation and the IC50 values were fitted with IDBS XE software using model 200: y=(A+(B/(1+((x/C)̂D)))), where A is the curve maximum, B the curve minimum and C equals the EC50 value. D is slope factor (Hill). Kb was calculated with the Cheng-Prusoff equation Kb=A/((B/C)+1), where A is the IC50 of antagonist, B the concentration of agonist and C the EC50 of the agonist.
Procedure for human alpha2C receptors: as §1, §2

Usually IC50 stands for the midpoint of a concentration-inhibition curve. Consider `O=C1c2ccc(Cl)cc2CN1[C@H]1CCCN(C[C@H]2COc3ccccc3O2)C1` [example 60, 5-Chloro-2-((S)-1-(((S)-2,3-dihydrobenzo[b][1,4]dioxin-2-yl)methyl)piperidin-3-yl)isoindolin-1-one], for which, at human alpha2C receptors, the IC50 is below 0.1 nM and the Kb was below 0.01 nM. Moreover, at human alpha2A receptors, the IC50 was above 10000 nM and the Kb was above 449 nM.

For `O=C1CN(C2CC(F)(F)C2)C(=O)N1[C@H]1CCCN(C[C@H]2COc3ccccc3O2)C1` [example 121, 1-(3,3-Difluorocyclobutyl)-3-((S)-1-(((S)-2,3-dihydrobenzo[b][1,4]dioxin-2-yl)methyl)piperidin-3-yl)imidazolidine-2,4-dione], the IC50 was 26.4 nM at human alpha2C receptors and above 10000 nM against human alpha2A receptors. The Kb on human alpha2C receptors was 2.66 nM; on human alpha2A receptors it was above 449 nM.

On to `CN1CCN([C@H]2CCCN(C[C@H]3COc4ccccc4O3)C2)C1=O` [example 101, 1-((S)-1-(((S)-2,3-Dihydrobenzo[b][1,4]dioxin-2-yl)methyl)piperidin-3-yl)-3-methylimidazolidin-2-one], for which, at human alpha2C receptors, the IC50 worked out at 0.78 nM and the Kb is 0.08 nM. Moreover, at human alpha2A receptors, the half-maximal inhibitory concentration (IC50) is above 10000 nM and the Kb was above 449 nM.

Take `C[C@@H](c1ccccc1)N1C(=O)C(=O)N([C@H]2CCCN(C[C@H]3COc4ccccc4O3)C2)C1=O` [compound 133, 1-((S)-1-(((S)-2,3-Dihydrobenzo[b][1,4]dioxin-2-yl)methyl)-piperidin-3-yl)-3-((S)-1-phenylethyl)imidazolidine-2,4,5-trione]: on human alpha2C receptors, the IC50 was below 0.01 nM and the Kb is below 0.001 nM. On human alpha2A receptors, this compound displayed an IC50 of 807 nM and a Kb of 36 nM.

As to `Fc1ccc2ncn([C@H]3CCCN(C[C@H]4COc5ccccc5O4)C3)c2c1` [example 82, 1-((S)-1-(((S)-2,3-Dihydrobenzo[b][1,4]dioxin-2-yl)methyl)piperidin-3-yl)-6-fluoro-1H-benzo[d]imidazole], on human alpha2C receptors, the IC50 was below 0.1 nM and the Kb was below 0.01 nM. Also, on human alpha2A receptors, the IC50 is above 10000 nM and the Kb is above 449 nM.

For `O=C1OC(c2ccc(F)cc2)CN1[C@H]1CCCN(C[C@H]2COc3ccccc3O2)C1` (stereo partly drawn) [example 21, 3-((S)-1-(((S)-2,3-Dihydrobenzo[b][1,4]dioxin-2-yl)methyl)piperidin-3-yl)-5-(4-fluorophenyl)oxazolidin-2-one], the figures for the IC50 on human alpha2C receptors and on human alpha2A receptors were 1.9 nM and 1400 nM, respectively. The values for the Kb at human alpha2C receptors and on human alpha2A receptors were 0.191 nM and 63 nM, respectively.

Take `CC(=O)NCc1ccc2c(c1)CN([C@H]1CCCN(C[C@H]3COc4ccccc4O3)C1)C2=O` [example 71, N-((2-((S)-1-(((S)-2,3-Dihydrobenzo[b][1,4]dioxin-2-yl)methyl)piperidin-3-yl)-1-oxoisoindolin-5-yl)methyl)acetamide]: on human alpha2C receptors, the IC50 came out at 0.12 nM and the Kb was 0.012 nM. Also, at human alpha2A receptors, the IC50 is above 10000 nM and the Kb was above 449 nM.

For the compound `O=C1CN(CC2CC2)C(=O)N1[C@H]1CCCN(C[C@H]2COc3ccccc3O2)C1` [example 108, 1-(Cyclopropylmethyl)-3-((S)-1-(((S)-2,3-dihydrobenzo[b][1,4]dioxin-2-yl)methyl)piperidin-3-yl)imidazolidine-2,4-dione], the IC50 at human alpha2C receptors was 1.25 nM; on human alpha2A receptors it was above 10000 nM. Besides, the Kb on human alpha2C receptors is 0.13 nM; on human alpha2A receptors, above 449 nM.

For the compound `CC1=CC(=O)N([C@H]2CCCN(C[C@H]3COc4ccccc4O3)C2)C1` [example 40, 1-((S)-1-(((S)-2,3-Dihydrobenzo[b][1,4]dioxin-2-yl)methyl)piperidin-3-yl)-4-methyl-1H-pyrrol-2(5H)-one], the IC50 on human alpha2C receptors is 2.32 nM; against human alpha2A receptors, above 10000 nM. Further, the Kb on human alpha2C receptors is 0.232 nM; on human alpha2A receptors, above 449 nM.

`CC(C)CN1C(=O)C(=O)N([C@H]2CCCN(C[C@H]3COc4ccccc4O3)C2)C1=O` [example 141, 1-((S)-1-(((S)-2,3-Dihydrobenzo[b][1,4]dioxin-2-yl)methyl)piperidin-3-yl)-3-isobutylimidazolidine-2,4,5-trione]: on human alpha2C receptors, the IC50 was found to be 0.446 nM and the Kb was 0.045 nM. In addition, at human alpha2A receptors, the IC50 was above 10000 nM and the Kb was above 449 nM.

As to `O=C1c2ccccc2C(=O)N1[C@H]1CCCN(C[C@H]2COc3ccccc3O2)C1` [example 61, 2-((S)-1-(((S)-2,3-Dihydrobenzo[b][1,4]dioxin-2-yl)methyl)piperidin-3-yl)isoindoline-1,3-dione], on human alpha2C receptors, the IC50 was found to be 0.062 nM and the Kb was 0.006 nM. On human alpha2A receptors, this compound had an IC50 above 10000 nM and a Kb above 449 nM.

As to `Cn1ncc2c1C(=O)N([C@H]1CCCN(C[C@H]3COc4ccccc4O3)C1)C2` [example 24, 5-((S)-1-(((S)-2,3-Dihydrobenzo[b][1,4]dioxin-2-yl)methyl)piperidin-3-yl)-1-methyl-4,5-dihydropyrrolo[3,4-c]pyrazol-6(1H)-one], on human alpha2C receptors, the IC50 amounted to 89.7 nM and the Kb is 9.03 nM. Besides, on human alpha2A receptors, the IC50 was above 10000 nM and the Kb was above 449 nM.

Regarding `CC1(c2ccccc2)NC(=O)N([C@H]2CCCN(C[C@H]3COc4ccccc4O3)C2)C1=O` (stereo partly drawn) [example 74, 3-((S)-1-(((S)-2,3-Dihydrobenzo[b][1,4]dioxin-2-yl)methyl)piperidin-3-yl)-5-methyl-5-phenylimidazolidine-2,4-dione], at human alpha2C receptors, the IC50 is below 0.1 nM and the Kb is below 0.01 nM. On human alpha2A receptors, this compound returned an IC50 of 13 nM and a Kb of 1 nM.

As for `O=C1C(c2ccccc2)CCN1[C@H]1CCCN(C[C@H]2COc3ccccc3O2)C1` (stereo partly drawn) [example 31, 1-((S)-1-(((S)-2,3-Dihydrobenzo[b][1,4]dioxin-2-yl)methyl)piperidin-3-yl)-3-phenylpyrrolidin-2-one], at human alpha2C receptors, the IC50 was above 10000 nM and the Kb is above 1010 nM. Moreover, on human alpha2A receptors, the IC50 is above 10000 nM and the Kb is above 449 nM.

On to `CN(C)Cc1nc2ccc(Cl)cc2n1[C@H]1CCCN(C[C@H]2COc3ccccc3O2)C1` [example 152, 1-(6-Chloro-1-((S)-1-(((S)-2,3-dihydrobenzo[b][1,4]dioxin-2-yl)methyl)piperidin-3-yl)-1H-benzo[d]imidazol-2-yl)-N,N-dimethylmethanamine], for which, on human alpha2C receptors, the IC50 is 69.8 nM and the Kb is 7.03 nM. On human alpha2A receptors, half-maximal inhibition (IC50) was put at 288 nM and the Kb was determined as 13 nM.

For `O=C1C(=O)N([C@H]2CCCN(C[C@H]3COc4ccccc4O3)C2)C(=O)N1Cc1ccncc1` [example 140, 1-((S)-1-(((S)-2,3-Dihydrobenzo[b][1,4]dioxin-2-yl)methyl)piperidin-3-yl)-3-(pyridin-4-ylmethyl)imidazolidine-2,4,5-trione], on human alpha2C receptors, the 50% inhibitory concentration (IC50) is 2.19 nM and the Kb is 0.22 nM. On human alpha2A receptors, the IC50 was above 10000 nM and the Kb is above 449 nM.

For `O=C1NC2(CC2)C(=O)N1[C@H]1CCCN(C[C@H]2COc3ccccc3O2)C1` [example 122, 6-((S)-1-(((S)-2,3-Dihydrobenzo[b][1,4]dioxin-2-yl)methyl)-piperidin-3-yl)-4,6-diazaspiro[2.4]heptane-5,7-dione], on human alpha2C receptors, the IC50 turned out to be 0.11 nM and the Kb is 0.01 nM. Moreover, at human alpha2A receptors, half-maximal inhibition (IC50) was put at 1380 nM and the Kb stood at 62 nM.

Consider `CC1CCC(=O)N1[C@H]1CCCN(C[C@H]2COc3ccccc3O2)C1` (stereo partly drawn) [example 30, 1-((S)-1-(((S)-2,3-Dihydrobenzo[b][1,4]dioxin-2-yl)methyl)piperidin-3-yl)-5-methylpyrrolidin-2-one], for which the IC50 at human alpha2C receptors is 1.11 nM; against human alpha2A receptors it was above 1000 nM. Moreover, the values for the Kb on human alpha2C receptors and at human alpha2A receptors were 0.11 nM and above 45 nM, respectively.

For `O=C1CC(c2ccccc2)CN1[C@H]1CCCN(C[C@H]2COc3ccccc3O2)C1` (stereo partly drawn) [example 32, 1-((S)-1-(((S)-2,3-Dihydrobenzo[b][1,4]dioxin-2-yl)methyl)piperidin-3-yl)-4-phenylpyrrolidin-2-one], on human alpha2C receptors, the IC50 was below 0.01 nM and the Kb is below 0.001 nM. In addition, on human alpha2A receptors, the IC50 was determined as 5210 nM and the Kb is 234 nM.

On to `Cc1nc2ccc(Cl)cc2n1[C@H]1CCCN(C[C@H]2COc3ccccc3O2)C1` [example 90, 6-Chloro-1-((S)-1-(((S)-2,3-dihydrobenzo[b][1,4]dioxin-2-yl)methyl)piperidin-3-yl)-2-methyl-1H-benzo[d]imidazole], for which, at human alpha2C receptors, the IC50 is below 0.1 nM and the Kb was below 0.01 nM. In addition, on human alpha2A receptors, it took 11100 nM to reach half-maximal inhibition (IC50) and the Kb worked out at 498 nM.
